Test results taken from patent publication US10202361B2, “Pyridazinones as herbicides” (E I DU PONT DE NEMOURS AND COMPANY, priority 2014, dated 2019).
Read-outs that look alike come from different tables or passages of the source.

Experiments:
Assay in all cases: Test C pre-/postemergence greenhouse herbicide test
Type in all cases: in vivo
[1] = test system: velvetleaf (Abutilon theophrasti); details: Abutilon theophrasti, Velvetleaf, read-out: Plant response rating; for pest or weed control at 62 g/ha: 62 g ai/ha; for pest or weed control at 125 g/ha: 125 g ai/ha
Summary of the method: (§1)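 Seeds in loam–sand blend sprayed preemergence, and 1- to 4-leaf plants (2–18 cm) sprayed postemergence, with compounds in non-phytotoxic solvent plus surfactant. Visual rating versus controls after 13–15 d in greenhouse, 0 (no effect) to 100 (complete control).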

[2] = test system: foxtail, giant (giant foxtail, Setaria faberii); details: Setaria faberi, Foxtail, Giant, read-out: Plant response rating; for pest or weed control at 31 g/ha: 31 g ai/ha; for pest or weed control at 62 g/ha: 62 g ai/ha; for pest or weed control at 125 g/ha: 125 g ai/ha; for pest or weed control at 250 g/ha: 250 g ai/ha
Summary of the method: as §1

[3] = test system: lambsquarters (Chenopodium album)
Summary of the method: as §1

[4] = test system: morningglory (Ipomoea coccinea); details: Morningglory
Summary of the method: as §1

corn (Zea mays) = details: Zea mays, Corn, read-out: Plant response rating; for plant injury at 31 g/ha: 31 g ai/ha; for plant injury at 62 g/ha: 62 g ai/ha; for plant injury at 125 g/ha: 125 g ai/ha; for plant injury at 250 g/ha: 250 g ai/ha
Summary of the method: as §1

soybean (Glycine max) = details: Glycine max, Soybean, read-out: Plant response rating; for plant injury at 62 g/ha: 62 g ai/ha; for plant injury at 125 g/ha: 125 g ai/ha; for plant injury at 250 g/ha: 250 g ai/ha
Summary of the method: as §1

[5] = test system: nutsedge, yellow (yellow nutsedge, Cyperus esculentus); details: Cyperus, Nutsedge, Yellow, read-out: Plant response rating; for pest or weed control at 31 g/ha: 31 g ai/ha; for pest or weed control at 62 g/ha: 62 g ai/ha; for pest or weed control at 125 g/ha: 125 g ai/ha; for pest or weed control at 250 g/ha: 250 g ai/ha
Summary of the method: as §1

[6] = test system: ryegrass, Italian (Italian ryegrass, Lolium multiflorum); details: Lolium multiflorum, Ryegrass, Italian, read-out: Plant response rating; for pest or weed control at 31 g/ha: 31 g ai/ha; for pest or weed control at 62 g/ha: 62 g ai/ha; for pest or weed control at 125 g/ha: 125 g ai/ha; for pest or weed control at 250 g/ha: 250 g ai/ha
Summary of the method: as §1

[7] = test system: blackgrass (Alopecurus myosuroides); details: Alopecurus myosuroides, Blackgrass, read-out: Plant response rating; for pest or weed control at 62 g/ha: 62 g ai/ha; for pest or weed control at 125 g/ha: 125 g ai/ha; for pest or weed control at 250 g/ha: 250 g ai/ha
Summary of the method: as §1

kochia (Kochia scoparia) = test system: kochia (Kochia scoparia)
Summary of the method: as §1

[8] = test system: galium (catchweed bedstraw, Galium aparine); details: Galium, read-out: Plant response rating; for pest or weed control at 31 g/ha: 31 g ai/ha; for pest or weed control at 62 g/ha: 62 g ai/ha; for pest or weed control at 125 g/ha: 125 g ai/ha; for pest or weed control at 250 g/ha: 250 g ai/ha
Summary of the method: as §1

[9] = post-emergence, Postemergence, 31 g ai/ha

## Cc1cc(=O)n(-c2ccc(F)cc2)nc1Oc1ccnc(C(F)(F)F)c1 [Compound 14, 2-(4-fluorophenyl)-5-methyl-6-[[2-(trifluoromethyl)-4-pyridinyl]oxy]-3 (2H)-pyridazinone]
[1]; [9]
  pest or weed control at 31 g/ha: 10%
[1]; post-emergence, Postemergence
  pest or weed control at 62 g/ha: 30%
  pest or weed control at 125 g/ha: 50%
[1]; pre-emergence, Preemergence
  pest or weed control at 62 g/ha: 10%
  pest or weed control at 125 g/ha: 20%
[1]; pre-emergence, Preemergence, 250 g ai/ha
  pest or weed control at 250 g/ha: 100%
[2]; post-emergence, Postemergence
  pest or weed control at 31 g/ha: 5%
  pest or weed control at 62 g/ha: 10%
  pest or weed control at 125 g/ha: 10%
  pest or weed control at 250 g/ha: 15%
[2]; pre-emergence, Preemergence
  pest or weed control at 31 g/ha: 80%
  pest or weed control at 62 g/ha: 98%
  pest or weed control at 125 g/ha: 100%
  pest or weed control at 250 g/ha: 100%
[3]; Postemergence, 31 g ai/ha
  Plant response rating: 40
[3]; Postemergence, 62 g ai/ha
  Plant response rating: 40
[3]; Postemergence, 125 g ai/ha
  Plant response rating: 45
[3]; Postemergence, 250 g ai/ha
  Plant response rating: 45
[3]; Preemergence, 31 g ai/ha
  Plant response rating: 55
[3]; Preemergence, 62 g ai/ha
  Plant response rating: 95
[3]; Preemergence, 125 g ai/ha
  Plant response rating: 95
[3]; Preemergence, 250 g ai/ha
  Plant response rating: 98
[4]; Postemergence, 31 g ai/ha
  Plant response rating: 75
[4]; Postemergence, 62 g ai/ha
  Plant response rating: 75
[4]; Postemergence, 125 g ai/ha
  Plant response rating: 80
[4]; Postemergence, 250 g ai/ha
  Plant response rating: 98
[4]; Preemergence, 31 g ai/ha
  Plant response rating: 35
[4]; Preemergence, 62 g ai/ha
  Plant response rating: 60
[4]; Preemergence, 125 g ai/ha
  Plant response rating: 65
[4]; Preemergence, 250 g ai/ha
  Plant response rating: 75
Corn (Zea mays); post-emergence, Postemergence
  plant injury at 31 g/ha: 20%
  plant injury at 62 g/ha: 35%
  plant injury at 125 g/ha: 40%
  plant injury at 250 g/ha: 40%
Corn (Zea mays); pre-emergence, Preemergence
  plant injury at 31 g/ha: 0%
  plant injury at 62 g/ha: 35%
  plant injury at 125 g/ha: 50%
  plant injury at 250 g/ha: 75%
Soybean (Glycine max); [9]
  plant injury at 31 g/ha: 90%
Soybean (Glycine max); post-emergence, Postemergence
  plant injury at 62 g/ha: 90%
  plant injury at 125 g/ha: 95%
  plant injury at 250 g/ha: 95%
Soybean (Glycine max); pre-emergence, Preemergence
  plant injury at 62 g/ha: 40%
  plant injury at 125 g/ha: 55%
  plant injury at 250 g/ha: 75%
[5]; post-emergence, Postemergence
  pest or weed control at 31 g/ha: 5%
  pest or weed control at 62 g/ha: 5%
  pest or weed control at 125 g/ha: 5%
  pest or weed control at 250 g/ha: 10%
[5]; pre-emergence, Preemergence
  pest or weed control at 31 g/ha: 0%
  pest or weed control at 62 g/ha: 5%
  pest or weed control at 125 g/ha: 25%
  pest or weed control at 250 g/ha: 25%
[6]; post-emergence, Postemergence
  pest or weed control at 31 g/ha: 5%
  pest or weed control at 62 g/ha: 5%
  pest or weed control at 125 g/ha: 10%
  pest or weed control at 250 g/ha: 25%
[6]; pre-emergence, Preemergence
  pest or weed control at 31 g/ha: 0%
  pest or weed control at 62 g/ha: 5%
  pest or weed control at 125 g/ha: 30%
  pest or weed control at 250 g/ha: 50%
[7]; [9]
  pest or weed control at 31 g/ha: 5%
[7]; post-emergence, Postemergence
  pest or weed control at 62 g/ha: 5%
  pest or weed control at 125 g/ha: 5%
  pest or weed control at 250 g/ha: 45%
[7]; pre-emergence, Preemergence
  pest or weed control at 62 g/ha: 10%
  pest or weed control at 125 g/ha: 15%
  pest or weed control at 250 g/ha: 15%
Kochia (Kochia scoparia); Postemergence, 31 g ai/ha
  Plant response rating: 25
Kochia (Kochia scoparia); Postemergence, 62 g ai/ha
  Plant response rating: 35
Kochia (Kochia scoparia); Postemergence, 125 g ai/ha
  Plant response rating: 55
Kochia (Kochia scoparia); Postemergence, 250 g ai/ha
  Plant response rating: 80
Kochia (Kochia scoparia); Preemergence, 31 g ai/ha
  Plant response rating: 45
Kochia (Kochia scoparia); Preemergence, 62 g ai/ha
  Plant response rating: 75
Kochia (Kochia scoparia); Preemergence, 125 g ai/ha
  Plant response rating: 90
Kochia (Kochia scoparia); Preemergence, 250 g ai/ha
  Plant response rating: 90
[8]; post-emergence, Postemergence
  pest or weed control at 31 g/ha: 50%
  pest or weed control at 62 g/ha: 55%
  pest or weed control at 125 g/ha: 55%
  pest or weed control at 250 g/ha: 75%
[8]; pre-emergence, Preemergence
  pest or weed control at 31 g/ha: 60%
  pest or weed control at 62 g/ha: 98%
  pest or weed control at 125 g/ha: 100%
  pest or weed control at 250 g/ha: 100%
